Source: patent publication US20230365563A1, “QUINAZOLINE COMPOUND AND APPLICATION THEREOF” (SHANGHAI PHARMACEUTICALS HOLDING CO., LTD., priority 2020, published 2023)
“And” between values parts separate entries of the source, which are not always exact repeats. Equal entries are not always repeated. Structures can show the parent of a compound that is named as a salt.

Assays:
KRAS-G12D and SOS1 = target: T1, KRAS-G12D and SOS1 (Homo sapiens, UniProt P01116, G12D); assay: Inhibition of KRAS-G12D/SOS1 binding (Cisbio binding kit, 665/615 ratio), Effect Embodiment A; conditions: read-out: GTP-KRAS-G12D:SOS1 IC50
T1 construct: purchased
Outline: (§1)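 Compounds underwent 3-fold dilution from their storage solutions (11 points), were transferred to assay wells in duplicate with DMSO held at 1% final, and were briefly centrifuged.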

KRAS_WT and SOS1 = target: T2, KRAS_WT and SOS1 (Homo sapiens, UniProt P01116); assay: Inhibition of KRAS_WT/SOS1 binding (Cisbio binding kit, 665/615 ratio), Effect Embodiment C; conditions: read-out: GTP-KRAS-WT:SOS1 IC50
T2 construct: purchased
Outline: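 Compounds tested as 3-fold, 11-point dilutions in duplicate at 1% DMSO final against the KRAS_WT/SOS1 binding system. IC50 derived by nonlinear regression fit.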

KRAS_G12D and cRAF = target: T3, KRAS_G12D and cRAF (Homo sapiens, UniProt P01116, G12D); assay: Inhibition of KRAS_G12D/cRAF binding (Cisbio binding kit, 665/615 ratio), Effect Embodiment B; conditions: read-out: GTP-KRAS-G12D:CRAF IC50
T3 construct: purchased
Outline: as §1

T1 sequence (P01116 1-188 isoform P01116-2 G12D): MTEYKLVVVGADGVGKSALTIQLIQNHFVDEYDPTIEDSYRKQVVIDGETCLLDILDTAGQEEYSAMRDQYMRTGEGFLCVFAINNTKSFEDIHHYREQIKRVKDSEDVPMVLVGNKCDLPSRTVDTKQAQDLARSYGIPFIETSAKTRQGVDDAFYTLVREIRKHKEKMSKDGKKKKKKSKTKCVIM
T3 sequence (P01116 1-188 isoform P01116-2 G12D): as above
T2 sequence (P01116 1-188 isoform P01116-2): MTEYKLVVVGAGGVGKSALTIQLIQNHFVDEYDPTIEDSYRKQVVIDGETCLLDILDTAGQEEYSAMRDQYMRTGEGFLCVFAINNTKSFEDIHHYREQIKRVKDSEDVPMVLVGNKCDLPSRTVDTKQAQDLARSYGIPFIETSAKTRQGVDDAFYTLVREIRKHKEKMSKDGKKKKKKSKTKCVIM

Compound | IC50 (KRAS-G12D and SOS1) | IC50 (KRAS_WT and SOS1) [nM] | IC50 (KRAS_G12D and cRAF) [nM]
CC(C)NCCCOc1nc(N2CC3CCC(C2)N3)c2cc(Cl)c(-c3cc(O)cc4ccccc34)c(F)c2n1 (single isomer, unassigned) [Compound 101, 4-((S or R)-4-((1R,5S)-3,8-diazabicyclo[3.2.1]octan-3-yl)-6-chloro-8-fluoro-2-(3-(isopropylamino)propoxy)quinazolin-7-yl)naphthalen-2-ol dihydrochloride] | 31.7 nM | 2470 | 182
CN(C)CCOc1nc(N2CC3CCC(C2)N3)c2cc(Cl)c(-c3cc(O)cc4ccccc34)c(F)c2n1 (single isomer, unassigned) [Compound 48a, 4-((S or R)-4-((1R,5S)-3,8-diazabicyclo[3.2.1]octan-3-yl)-6-chloro-2-(2-(dimethylamino)ethoxy)-8-fluoroquinazolin-7-yl)naphthalen-2-ol] | 23.8 nM | 6020 | 130
Oc1cc(-c2c(Cl)cc3c(N4CC5CCC(C4)N5)nc(OCCN4CCCC4)nc3c2F)c2ccccc2c1 (single isomer, unassigned) [Compound 116, 4-((S or R)-4-((1R,5S)-3,8-diazabicyclo[3.2.1]octan-3-yl)-6-chloro-8-fluoro-2-(2-(pyrrolidin-1-yl)ethoxy)quinazolin-7-yl)naphthalen-2-ol dihydrochloride] | 65.7 nM | 3380 | 189
C[C@@H]1COCCN1CCCOc1nc(N2C[C@H]3CC[C@@H](C2)N3)c2cc(Cl)c(-c3cc(O)cc4ccccc34)c(F)c2n1 (single isomer, unassigned) [Compound 181, (R or S)-4-(4-((1R,5S)-3,8-diazabicyclo[3.2.1]octan-3-yl)-6-chloro-8-fluoro-2-(3-((R)-3-methylmorpholinyl)propoxy)quinazolin-7-yl)naphthalen-2-ol diformate] | 38.1 nM | 3090 | 136
C[C@H]1C[C@@H](COc2nc(N3CC4CCC(C3)N4)c3cc(Cl)c(-c4cc(O)cc5ccccc45)c(F)c3n2)N(C)C1 (single isomer, unassigned) [Compound 190, 4-((R or S)-4-((1R,5S)-3,8-diazabicyclo[3.2.1]octan-3-yl)-6-chloro-2-((2S,4S)-1,4-dimethylpyrrolidin-2-yl)methoxy)-8-fluoroquinazolin-7-yl)naphthalen-2-ol diformate] | 15.3 nM | 292 | 28.9
CN(C)C1CN(c2nc(N3[C@@H]4CC[C@H]3CNC4)c3cc(Cl)c(-c4cc(O)cc5ccccc45)c(F)c3n2)C1 (single isomer, unassigned) [Compound 6a, (R or S)-4-(4-((1R,5S)-3,8-diazabicyclo [3.2.1]octan-8-yl)-6-chloro-2-(3-(dimethylamino)azetidin-1-yl)-8-fluoro-quinazolin-7-yl)naphthalen-2-ol] | 66.4 nM | 293 | 66
Oc1cc(-c2c(Cl)cc3c(N4CC5CCC(C4)N5)nc(OCCN4CCCC(F)C4)nc3c2F)c2ccccc2c1 (single isomer, unassigned) [Compound 267b, 4-((R or S)-4-((1R,5S)-3,8-diazacyclo[3.2.1]octan-3-yl)-6-chloro-8-fluoro-2-(2-((R or S)-3-fluoropiperidin-1-yl)ethoxy)quinazolin-7-yl)naphthalen-2-ol formate] | 118 nM | 4600 | 278
CN(C)C1CN(c2nc(N3CC4CCCC3CN4)c3cc(Cl)c(-c4cc(O)cc5ccccc45)c(F)c3n2)C1 (single isomer, unassigned) [Compound 37, 4-((S or R)-4-((1S,5S or 1R,5R)-6,8-diazabicyclo[3.2.2]nonan-6-yl)-6-chloro-2-(3-(dimethylamino)azetidin-1-yl)-8-fluoroquinazolin-7-yl)naphthalen-2-ol] | 629 nM | 1010 | 2140

Other lines, results leading:

IC50 (KRAS-G12D and SOS1) | IC50 (KRAS_WT and SOS1) [nM] | IC50 (KRAS_G12D and cRAF) [nM] | Compound
16.7 nM and 21.2 nM | 765 | 47.7 | CN(C)CCCOc1nc(N2C[C@H]3CC[C@@H](C2)N3)c2ccc(-c3cc(O)cc4ccccc34)c(F)c2n1 [Compound 143, 4-(4-((1R,5S)-3,8-diazabicyclo[3.2.1]octan-3-yl)-2-(3-(dimethylamino)propoxy)-8-fluoroquinazolin-7-yl)naphthalen-2-ol]
95.3 nM | 7700 | 477 | CN(C)CCCCCOc1nc(N2CC3CCC(C2)N3)c2cc(Cl)c(-c3cc(O)cc4ccccc34)c(F)c2n1 (single isomer, unassigned) [Compound 98, 4-((S or R)-4-((1R,5S)-3,8-diazabicyclo[3.2.1]octan-3-yl)-6-chloro-2-((5-(dimethylamino)pentyl)oxy)-8-fluoroquinazolin-7-yl)naphthalen-2-ol carboxylate]
26.9 nM | 6130 | 219 | CO[C@H]1CCN(CCCOc2nc(N3CC4CCC(C3)N4)c3cc(Cl)c(-c4cc(O)cc5ccccc45)c(F)c3n2)[C@H](C)C1 (single isomer, unassigned) [Compound 258, 4-((S or R)-4-((1R,5S)-3,8-diazacyclo[3.2.1]octan-3-yl)-6-chloro-8-fluoro-2-(3-((2R,4S)-4-methoxy-2-methylpiperidin-1-yl)propoxy)quinazolin-7-yl)naphthalen-2-ol diformate]
15.2 nM | 1040 | 104 | CN(C)CCCOc1nc(N2C[C@H]3CC[C@@H](C2)N3)c2cc(Cl)c(-c3cc(O)cc4ccccc34)c(F)c2n1 (single isomer, unassigned) [Compound 40a, (S or R)-4-(4-((1R,5S)-3,8-diazabicyclo[3.2.1]octan-3-yl)-6-chloro-2-(3-(dimethylamino)propoxy)-8-fluoroquinazolin-7-yl)naphthalen-2-ol]
19.5 nM | 569 | 18.6 | C[C@@H](COc1nc(N2CC3CCC(C2)N3)c2cc(Cl)c(-c3cc(O)cc4ccccc34)c(F)c2n1)CN1C[C@H](C)OC[C@H]1C (single isomer, unassigned) [Compound 237, 4-((S or R)-4-((1R,5S)-3,8-diazacyclo[3.2.1]octan-3-yl)-6-chloro-2-((R)-3-((2S,5R)-2,5-dimethylmorpholinyl)-2-methylpropoxy)-8-fluoroquinazolin-7-yl)naphthalen-2-ol formate]
16.7 nM | 593 | 23.4 | C[C@@H](COc1nc(N2CC3CCC(C2)N3)c2cc(Cl)c(-c3cc(O)cc(Cl)c3C3CC3)c(F)c2n1)CN1C2CCC1COC2 (single isomer, unassigned) [Compound 227, 3-((7S or 7R)-2-((2R)-3-(3-oxa-8-azabicyclo[3.2.1]octan-8-yl)-2-methylpropoxy)-4-((1R,5S)-3,8-diazabicyclo[3.2.1]octan-3-yl)-6-chloro-8-fluoroquinazolin-7-yl)-5-chloro-4-cyclopropylphenol formate]
19.1 nM | 309 | 15 | C[C@@H](COc1nc(N2CC3CCC(C2)N3)c2cc(Cl)c(-c3cc(O)cc4ccccc34)c(F)c2n1)CN1C[C@@H](C)OC[C@H]1C (single isomer, unassigned) [Compound 236, 4-((S or R)-4-((1R,5S)-3,8-diazacyclo[3.2.1]octan-3-yl)-6-chloro-2-((R)-3-((2R,5R)-2,5-dimethylmorpholinyl)-2-methylpropoxy)-8-fluoroquinazolin-7-yl)naphthalen-2-ol formate]
9.1 nM | 227 | 7.18 | CCc1c(F)ccc2cc(O)cc(-c3c(Cl)cc4c(N5CC6CCC(C5)N6)nc(OC[C@H](C)CN5C6CCC5COC6)nc4c3F)c12 (single isomer, unassigned) [Compound 233b, 4-((7R or 7S)-2-((2R)-3-(3-oxa-8-azabicyclo[3.2.1]octan-8-yl)-2-methylpropoxy)-4-((1R,5S)-3,8-diazabicyclo[3.2.1]octan-3-yl)-6-chloro-8-fluoroquinazolin-7-yl)-5-ethyl-6-fluoronaphthalen-2-ol formate]
238 nM | 136 | 2700 | Cn1cnc(Cn2ccc3ccc(CNCc4[nH]c5ccccc5c4[C@H]4NC(=O)c5ccc(O)cc54)cc32)c1 [BI-2852, reference compound]
18.7 nM | 1080 | 102 | Oc1cc(-c2c(Cl)cc3c(N4CC5CCC(C4)N5)nc(OCCCN4CCC5(CCOC5)CC4)nc3c2F)c2ccccc2c1 (single isomer, unassigned) [Compound 261, 4-((S or R)-2-(3-(2-oxa-8-azaspiro[4.5]decan-8-yl)propoxy)-4-((1R,5S)-3,8-diazacyclo[3.2.1]octan-3-yl)-6-chloro-8-fluoroquinazolin-7-yl)naphthalen-2-ol diformate]
10.1 nM | 29.1 | 11.3 | C=CCN1CCC[C@H]1COc1nc(N2CC3CCC(C2)N3)c2cc(F)c(-c3cc(O)cc4ccc(F)c(CC)c34)c(F)c2n1 (single isomer, unassigned) [Compound 287a, 4-((S or R)-2-((S)-1-allylpyrrolidin-2-yl)methoxy)-4-((1R,5S)-3,8-diazacyclo[3.2.1]octan-3-yl)-6,8-difluoroquinazolin-7-yl)-5-ethyl-6-fluoronaphthalen-2-ol dihydrochloride]
44.6 nM | 1250 | 283 | CN(C)C1CN(c2nc(N3CC4CCC(C3)N4)c3cc(Cl)c(-c4cc(O)cc5cccc(F)c45)c(F)c3n2)C1 (single isomer, unassigned) [Compound 64b, 4-((R or S)-4-((1R,5S)-3,8-diazabicyclo[3.2.1]octan-3-yl)-6-chloro-2-(3-(dimethylamino)azetidin-1-yl)-8-fluoroquinazolin-7-yl)-5-fluoronaphthalen-2-ol]
